Experimental data: publication PMC7305224, “Mutually stabilizing interactions between proto-peptides and RNA” (Nature Communications, 2020)

Columns and labels:
Assay type in all cases: binding
[1] = tested on: RNA duplex 3 (5′-rArArCrGrUrArUrArCrGrUrU-3′, palindromic); assay: RNA thermal denaturation (Tm) by UV hyperchromicity, RNA duplex 3
Description: (§1) Prior to Tm analyses, RNA samples were annealed in the appropriate buffer by heating to 75 °C and slowly cooling to room temperature. Depsipeptide/peptide was added to the annealed RNA and incubated at 4 °C for 20 min prior to carrying out the analysis. For analyses involving dry-down reaction mixtures, the Tm was determined by monitoring fluorescence increase upon melting of a fluorophore/quencher-labeled RNA duplex (5′-rCrGrArUrUrUrArGrCrG-/3IABkFQ/-3′ and 3′-rGrCrUrArArArUrCrGrC-FAM-5′) using a BioRad CFX Connect rtPCR instrument with a heating ramp of 1 °C/min and 20 μL final sample volumes. For analyses involving pure, synthetic compounds, the Tm of the RNA was determined by monitoring UV hyperchromicity at 260 nm using a Varian Cary Bio-100 spectrophotometer, with a heating ramp of 1 °C/min and 0.5- or 1-cm pathlength cells. The following RNA sequences were used: RNA duplex 1 = 5′-rCrGrCrUrArArArUrCrG-3′ and 5′-rCrGrArUrUrUrArGrCrG-3′; RNA duplex 2 = 5′-rArArArArUrUrUrArUrArUrUrArUrUrA-3′ and 5′-rUrArArUrArArUrArUrArArArUrUrUrU-3′; RNA duplex 3 = 5′-rArArCrGrUrArUrArCrGrUrU-3′ (palindromic); and H26a RNA = 5′-rArUrGrArGrUrArArCrCrGrUrArArGrGrUrGrArArArUrU-3′. RNA was present in each assay at a final concentration of 2.5 μM of the folded structure (2.5 μM each strand for duplex 1 and duplex 2, 5.0 μM palindromic strand for duplex 3, 2.5 μM strand for H26a RNA). Tm values were determined by nonlinear fitting of the melting curves using GraphPad Prism 8.2.1 for duplex 1 and H26a, or by finding the maximum of the first derivative of the curve using the Varian Cary Bio-100 software for duplex 2 and duplex 3. Both methods of determining the Tm gave similar values for a given denaturation curve.

[2] = tested on: H26a RNA (5′-rArUrGrArGrUrArArCrCrGrUrArArGrGrUrGrArArArUrU-3′); assay: RNA thermal denaturation (Tm) by UV hyperchromicity, H26a RNA hairpin
Description: as §1

[3] = tested on: RNA duplex 1 (5′-rCrGrCrUrArArArUrCrG-3′ & 5′-rCrGrArUrUrUrArGrCrG-3′); assay: RNA thermal denaturation (Tm) by UV hyperchromicity at 260 nm with synthetic peptides/depsipeptides, RNA duplex 1; details: 100 mM NaCl
Description: Each sample contained RNA duplex 1 (5′-rCrGrCrUrArArArUrCrG-3′ and 5′-rCrGrArUrUrUrArGrCrG-3′, 2.5 μM strand) and peptide/depsipeptide (100 μM) in buffered solution (10 mM phosphate, 100 mM NaCl, pH 7.0 or 10 mM acetate, 100 mM NaCl, pH 5.0). a Structures of depsipeptides used to systematically characterize cationic side chain effects on RNA duplex stability. Lactic acid residues are highlighted. Ac acetyl, Aba acetamidobenzoic acid, which was appended to the N-terminus to increase UV absorbance. b Structures of the Fmoc-didepsipeptide building blocks used for solid-phase synthesis of depsipeptide sequences. Fmoc fluorenylmethoxycarbonyl. c Comparative effects of oligo-didepsipeptide sequences 2–6 and analogous oligo-dipeptide and on the Tm of the RNA duplex (number of independent measurements: n = 3 for Arg and Lys sequences; n = 2 for His and Dab sequences; n = 4 for Orn sequences). The shaded areas correspond to the mean ± SD Tm measured for the RNA duplex alone (n = 16 independent measurements). Data are shown as a scatter plot with mean ± SD. d Comparative effects on RNA duplex Tm of depsipeptide sequences containing a single backbone ester (number of independent measurements: n = 3 for Arg; n = 2 for His, Orn, and Dab; n = 4 for Lys), relative to RNA duplex alone (n = 16 independent measurements). Data are shown as a scatter plot with mean ± SD. e To assess the impact of different cationic side chains on depsipeptide degradation rates, depsipeptides 7–11 (40 μM) were incubated at 37 °C in buffer (100 mM HEPES, 10 mM NaCl, pH 7.3). After 5 min, the reactions were quenched by the addition of 3% TFA, and samples were analyzed by HPLC.
as §1, with “3.” for “3. Both methods of determining the Tm gave similar values for a given denaturation curve.”

## Aba-Gly-Ala-Dab-Lys-Ala-Dab-Lys-lac-Dab-Lys-Ala-Dab-Lys-NH2 [compound 9]
[1]; observed Tm with peptide/depsipeptide 100 µM, pH 7.0, RNA alone 48.6 ± 0.7, mean ± SD of 2-4 independent experiments
  RNA duplex 3 Tm: 58.5 ± 0.7 °C
[1]; peptide/depsipeptide 100 μM, 5.0 μM palindromic strand, pH 7.0, 10 mM phosphate, 100 mM NaCl, mean of 2–4 replicates
  RNA duplex 3 ΔTm: 9.9 °C
[2]; observed Tm with peptide/depsipeptide 100 µM, pH 7.0, RNA alone 53.4 ± 0.5, mean ± SD of 2-4 independent experiments
  H26a RNA Tm: 64.9 ± 0.7 °C
[2]; peptide/depsipeptide 100 μM, RNA 2.5 μM strand, pH 7.0, 10 mM phosphate, 100 mM NaCl, mean of 2–4 replicates
  H26a RNA ΔTm: 11.5 °C
[3]; observed Tm with peptide/depsipeptide 100 µM, pH 7.0, 10 mM phosphate, RNA alone 43.8 ± 0.4, mean ± SD of 2-4 independent experiments
  RNA duplex 1 Tm: 54.2 ± 1.3 °C
[3]; peptide/depsipeptide 100 μM, RNA 2.5 μM each strand, 10 mM phosphate, pH 7.0, vs RNA alone at matched pH, mean of 2–4 replicates
  RNA duplex 1 ΔTm: 10.4 °C
